Experimental data as given in patent US9309275B2, “3′-deoxy nucleosides for the treatment of HCV” (Idenix Pharmaceuticals, Inc., priority 2013, dated 2016).
Like-named read-outs stand apart in the source and are kept apart here.

What was measured:
[1] = Cytotoxicity evaluation, CellTiter-Blue Cell Viability Assay; assay type: cell-based; conditions: human
Method: (§1) For cytotoxicity evaluation, Zluc cells were treated with test compound as described herein, and cell viability was monitored using the CellTiter-Blue Cell Viability Assay (Promega) by adding 20 μL of the assay solution to each well. The plates were then incubated at 37° C./5% CO2 for at least 3 hours.

[2] = test system: HCV genotype 1b replicon; test: HCV replicon assay (Zluc luciferase reporter); assay type: cell-based
Method: Huh-7-derived cell line (Zluc) that harbors an HCV genotype 1b replicon and a luciferase reporter gene was grown in Dulbecco's Modified Eagle Medium (DMEM) supplemented with 10% fetal bovine serum, 2 mM GlutaMAX, 1% MEM nonessential amino acids, 100 IU/mL penicillin, 100 μg/mL streptomycin, and 0.5 mg/mL Geneticin® (G418). For dose response testing the cells were seeded in 96-well plates at 7.5×10^3 cells per well in a volume of 50 μL, and incubated at 37° C./5% CO2. Drug solutions were made up freshly in Huh-7 media as 2× stocks. Ten additional 5-fold dilutions were prepared from these stocks in DMEM without G418. At least three hours after Zluc cells were seeded, drug treatment was initiated by adding 50 μL of drug dilutions to the plates in duplicate. Final concentrations of drug ranged from 100 μM to […]. Cells were then incubated at 37° C./5% CO2. Alternatively, compounds were tested at two concentrations (1 μM and 10 μM). […] For this, media was removed from the plates via gentle tapping. Fifty microliters of ONE-glo luciferase assay reagent was added to each well. The plates were shaken gently for 3 min at room temperature and luminescence was measured on a Victor^3 V 1420 multilabel counter (Perkin Elmer) with a 1 second read time using a 700 nm cut-off filter. The EC50 values were calculated from dose response curves from the resulting best-fit equations determined by Microsoft Excel and XLfit 4.1 software. When screening at two fixed concentrations, the results were expressed as % inhibition at 1 μM and 10 μM.

[3] = test system: Zluc cells; test: Cytotoxicity evaluation, CellTiter-Blue Cell Viability Assay; assay type: cell-based; conditions: read-out: HCV Replicon CC50
Method: as §1

[4] = biological target: T1, HCV genotype 1b NS5B protein containing the S282T mutation (Hepatitis C virus genotype 1b, UniProt Q9WMX2, S2701T); test: HCV polymerase enzyme assay, S282T mutant; assay type: biochemical; conditions: purified recombinant genotype 1b NS5B with S282T mutation; compounds tested as nucleoside triphosphates
T1 construct: HCV genotype 1b NS5B protein were used to generate recombinant HCV polymerases (with a deletion of the 21 carboxy terminal amino acids); made in house
Description: (§2) Test compounds in the form of nucleoside triphosphates were examined for inhibitory activity against purified HCV polymerase in a standard assay. Bacterial expression constructs encoding the approximately 65 kDa HCV genotype 1b NS5B protein were used to generate recombinant HCV polymerases (with a deletion of the 21 carboxy terminal amino acids). Both the wild-type genotype 1b protein and protein containing the S282T mutation were expressed and purified for use in the enzymatic activity assay.
(§3) The enzymatic activity assay measured the inhibitory effect of increasing concentrations of test compound on the incorporation of α-[^33P]-labeled nucleotide into trichloroacetic acid-precipitable material. Recombinant polymerase and synthetic RNA template were combined in reaction buffer containing ribonucleoside triphosphates, α-[^33P]-labeled nucleotide and eight concentrations of test compound in three-fold dilutions. […]
(§4) Reactions were terminated by the addition of ice-cold trichloroacetic acid and sodium pyrophosphate to promote precipitation of newly-synthesized ribonucleic acid. Precipitable material from the reactions was collected by filtration onto 96-well filter plates, washed extensively with water, and quantified by liquid scintillation.
(§5) The inhibitory activity of test compounds was determined by fitting results to dose-response curves using XLfit software.

[5] = biological target: T2, wild-type HCV genotype 1b NS5B protein (Hepatitis C virus genotype 1b, UniProt Q9WMX2); test: HCV polymerase enzyme assay, wild-type; assay type: biochemical
T2 construct: HCV genotype 1b NS5B protein were used to generate recombinant HCV polymerases (with a deletion of the 21 carboxy terminal amino acids); made in house
Description: as §2, §3, §4, §5

[6] = Zluc cells, read-out: HCV Replicon CC50
[7] = read-out: HCV Replicon EC50, Huh-7-derived Zluc cells, 72 hours of incubation
[8] = Hepatitis C virus, 72 h, Huh-7-derived Zluc cells, 72 hours of incubation, read-out: HCV Replicon EC50
[9] = Huh-7-derived Zluc cells, 72 hours of incubation, read-out: HCV Replicon EC50
[10] = Zluc cells (HCV replicon cells)

CC(C)OC(=O)[C@H](C)NP(=O)(OC[C@@H]1C[C@@](C)(F)[C@H](n2cnc3c(=O)[nH]c(N)nc32)O1)Oc1ccccc1 (single isomer, unassigned) [1b Diastereomer 1]
CC50 at 72 h [1, 6]: > 50 µM | EC50 [2, 7]: 1 to 10 µM

CCOc1nc(N)nc2c1ncn2[C@@H]1O[C@H](COP(=O)(N[C@H](C)C(=O)OC(C)C)Oc2ccccc2)C[C@@]1(C)F (single isomer, unassigned) [2a Diastereomer 1]
CC50 at 72 h [1, 6]: > 50 µM | EC50 [2, 8]: > 10 µM

CCOc1nc(N)nc2c1ncn2[C@@H]1O[C@H](COP(=O)(N[C@@H](C)C(=O)OC(C)C)Oc2ccccc2)C[C@@]1(C)F (single isomer, unassigned) [2b Diastereomer 1]
CC50 at 72 h [1, 6]: > 50 µM | EC50 [2, 9]: > 10 µM

CCOc1nc(N)nc2c1ncn2[C@@H]1O[C@H](COP(=O)(N[C@@H](C)C(=O)OC(C)C)Oc2ccccc2)C[C@@]1(C)F (single isomer, unassigned) [2b Diastereomer 2]
CC50 [3]: > 50 µM | EC50 [2, 9]: 1 to 10 µM

CC(C)OC(=O)[C@H](C)NP(=O)(OC[C@@H]1C[C@@](C)(F)[C@H](n2ccc(N)nc2=O)O1)Oc1ccccc1 (single isomer, unassigned) [3b Diastereomer 1]
CC50 at 72 h [1, 6]: > 50 µM | EC50 [2, 8]: > 10 µM

CC(C)OC(=O)[C@H](C)NP(=O)(OC[C@@H]1C[C@@](C)(F)[C@H](n2ccc(=O)[nH]c2=O)O1)Oc1ccccc1 (single isomer, unassigned) [4b Diastereomer 1]
CC50 at 72 h [1, 6]: > 50 µM | EC50 [2, 9]: 0.25 to 1 µM

CC(C)OC(=O)[C@H](C)NP(=O)(OC[C@@H]1C[C@@](C)(F)[C@H](n2ccc(=O)[nH]c2=O)O1)Oc1ccccc1 (single isomer, unassigned) [4b Diastereomer 2]
CC50 [3]: > 50 µM | EC50 [2, 9]: 1 to 10 µM

CC(C)OC(=O)[C@H](C)NP(=O)(OC[C@@H]1C[C@@](C)(F)[C@H](n2cnc3c(=O)[nH]c(N)nc32)O1)Oc1ccccc1 (single isomer, unassigned) [lb Diastereomer 2]
CC50 [3]: > 50 µM | EC50 [2, 7]: > 10 µM

C[C@@]1(F)C[C@@H](COP(=O)(O)OP(=O)(O)OP(=O)(O)O)O[C@H]1n1cnc2c(=O)[nH]c(N)nc21 [Compound 101]
IC50 [4]: 1 to 10 µM | IC50 [5]: < 0.25 µM

C[C@@]1(F)C[C@@H](COP(=O)(O)OP(=O)(O)OP(=O)(O)O)O[C@H]1n1ccc(=O)[nH]c1=O [Compound 102]
IC50 [4]: > 10 µM | IC50 [5]: 1 to 10 µM

C[C@@]1(F)C[C@@H](CO)O[C@H]1n1cnc2c(=O)[nH]c(N)nc21 [Compound 201]
CC50 at 72 h [1, 10]: > 50 µM | EC50 [2, 8]: > 10 µM

C[C@@]1(F)C[C@@H](CO)O[C@H]1n1ccc(=O)[nH]c1=O [Compound 202]
CC50 at 72 h [1, 10]: > 50 µM | EC50 [2, 8]: > 10 µM
